From ChEMBL document CHEMBL1201862, “PubChem BioAssay data set” (2004)
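Results reflect a 48-hour exposure of cells in 96-well plates to compound at five concentrations. Abbreviation: GI50, concentration required for 50% inhibition of growth.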 Calls of active or inactive are those of the source. Rule as the data show it: active = GI50 up to about 1.1 µM and inactive = higher.

Legend:
Test in all cases: growth of human tumour cells (NCI), 48 h
EKVX = tested on: EKVX
RPMI-8226 = tested on: RPMI-8226
TK-10 = tested on: TK-10
HCT-116 = tested on: HCT-116
HCT-15 = tested on: HCT-15
K562 = tested on: K562
KM12 = tested on: KM12
OVCAR-4 = tested on: OVCAR-4
MCF7 = tested on: MCF7
HOP-92 = tested on: HOP-92
NCI-H226 = tested on: NCI-H226
RXF 393 = tested on: RXF 393
SNB-19 = tested on: SNB-19
M14 = tested on: M14
MDA-MB-435 = tested on: MDA-MB-435
CCRF-CEM = tested on: CCRF-CEM
SK-MEL-5 = tested on: SK-MEL-5
COLO 205 = tested on: COLO 205
SF-295 = tested on: SF-295
BT-549 = tested on: BT-549

SMILES | GI50 (EKVX) | GI50 (RPMI-8226) | GI50 (TK-10) | GI50 (HCT-116) | GI50 (HCT-15) [µM] | GI50 (K562) | GI50 (KM12) | GI50 (OVCAR-4) | GI50 (MCF7) | GI50 (HOP-92) | GI50 (NCI-H226) | GI50 (RXF 393) | GI50 (SNB-19) | GI50 (M14) | GI50 (MDA-MB-435) | GI50 (CCRF-CEM) | GI50 (SK-MEL-5) | GI50 (COLO 205) | GI50 (SF-295) | GI50 (BT-549)
NNC(=O)Nc1cccnc1 | > 100 µM (inactive) | > 100 µM (inactive) | > 100 µM (inactive) | > 100 µM (inactive) | > 100 | > 100 µM (inactive) | > 100 µM (inactive) | > 100 µM (inactive) | > 100 µM (inactive) | > 100 µM (inactive) | > 100 µM (inactive) | > 100 µM (inactive) | > 100 µM (inactive) | > 100 µM (inactive) | > 100 µM (inactive) | > 100 µM (inactive) | > 100 µM (inactive) | > 100 µM (inactive) | > 100 µM (inactive) | –
COC(c1ccc(C(C)(C)C)cc1)(c1ccc(C(C)(C)C)cc1)c1ccc(C(C)(C)C)cc1 | > 100 µM (inactive) | > 100 µM (inactive) | > 100 µM (inactive) | > 100 µM (inactive) | > 100 | > 100 µM (inactive) | > 100 µM (inactive) | > 100 µM (inactive) | > 100 µM (inactive) | – | > 100 µM (inactive) | – | > 100 µM (inactive) | 70.5 µM (inactive) | > 100 µM (inactive) | > 100 µM (inactive) | > 100 µM (inactive) | > 100 µM (inactive) | > 100 µM (inactive) | > 100 µM (inactive)
CCN(CC)C(=S)SS(=O)(=O)c1ccc(Cl)cc1 | > 100 µM (inactive) | 15 µM (inactive) | 67.8 µM (inactive) | 30.3 µM (inactive) | 31.3 | 14.5 µM (inactive) | 11.7 µM (inactive) | 45.5 µM (inactive) | – | 16.9 µM (inactive) | 62.7 µM (inactive) | 17.6 µM (inactive) | 38.3 µM (inactive) | 17.3 µM (inactive) | 20.5 µM (inactive) | – | 9.04 µM (inactive) | 26.5 µM (inactive) | 38.7 µM (inactive) | 34.4 µM (inactive)
CN(CC(=O)O)c1ncc2c(n1)-c1ccccc1CC2 | > 100 µM (inactive) | > 100 µM (inactive) | > 100 µM (inactive) | > 100 µM (inactive) | > 100 | > 100 µM (inactive) | > 100 µM (inactive) | > 100 µM (inactive) | > 100 µM (inactive) | > 100 µM (inactive) | > 100 µM (inactive) | > 100 µM (inactive) | > 100 µM (inactive) | > 100 µM (inactive) | > 100 µM (inactive) | > 100 µM (inactive) | > 100 µM (inactive) | > 100 µM (inactive) | > 100 µM (inactive) | –
COc1cc(C/N=c2/nc(N(C)C)ss2)cc(OC)c1OC | > 10 µM (inactive) | 2.48 µM (inactive) | > 10 µM (inactive) | 8.85 µM (inactive) | > 10 | 1.46 µM (inactive) | > 7.59 µM (inactive) | > 9.27 µM (inactive) | > 5.78 µM (inactive) | > 10 µM (inactive) | > 10 µM (inactive) | > 10 µM (inactive) | > 10 µM (inactive) | > 9.1 µM (inactive) | > 10 µM (inactive) | 0.189 µM (active) | > 10 µM (inactive) | > 10 µM (inactive) | > 10 µM (inactive) | –
CN(NC1=NCCO1)c1ccc2ccccc2c1 | 39.5 µM (inactive) | 76.7 µM (inactive) | > 100 µM (inactive) | 35 µM (inactive) | 49.4 | 28.3 µM (inactive) | 63.1 µM (inactive) | 42 µM (inactive) | 48.6 µM (inactive) | 13.6 µM (inactive) | 34.1 µM (inactive) | 38.6 µM (inactive) | 54.7 µM (inactive) | 36 µM (inactive) | 34.5 µM (inactive) | 17.2 µM (inactive) | 29.2 µM (inactive) | 41.1 µM (inactive) | > 100 µM (inactive) | –
CSc1ccc(C=C2N=C(c3ccccc3)N(c3cc(C(=O)c4ccccc4)ccc3N3C(=O)/C(=C/c4ccc(SC)cc4)N=C3c3ccccc3)C2=O)cc1 | > 100 µM (inactive) | 25.4 µM (inactive) | 51.1 µM (inactive) | 59.3 µM (inactive) | 61.4 | 46 µM (inactive) | 40 µM (inactive) | 40 µM (inactive) | > 100 µM (inactive) | 80.7 µM (inactive) | – | – | > 100 µM (inactive) | 76.9 µM (inactive) | 31.8 µM (inactive) | 5.69 µM (inactive) | 37.6 µM (inactive) | 56.9 µM (inactive) | 44.1 µM (inactive) | 45.6 µM (inactive)
CC#CC(O)(C(=O)OC1CCC2CCC1N2C)C1CCCC1 (centres undefined) | > 100 µM (inactive) | > 100 µM (inactive) | > 100 µM (inactive) | > 100 µM (inactive) | > 100 | – | > 100 µM (inactive) | – | > 100 µM (inactive) | – | > 100 µM (inactive) | > 100 µM (inactive) | > 100 µM (inactive) | > 100 µM (inactive) | – | – | > 100 µM (inactive) | > 100 µM (inactive) | > 100 µM (inactive) | –
